A short description of the data set: recombinant barcode read abundance after kanamycin selection (control-corrected) (log10(CPM+1)); higher = more efficient recombination; sequences stand for … in AGTGCAGAGAAAATCGGCCAGTTTTCTCTGCCTGCAGTCCGCATGCCGT…AGATTTATGCAGCGGACTGCCTTTCTCCCAAAGTGATAAACCGGACAGTATCATGGACCGGTTTTCCCGGTAATCCGTATTTGCAAGGTTGGTTTCACT; site = the 11-nt target. In a few lines:
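Oligos holding a promoter, target, barcode and the J23119-driven first 104 bases of the bridge RNA were Gibson-cloned into a vector that supplied the other 73 bp plus a T7-inducible recombinase. This library was co-electroporated with a donor plasmid into E. coli. Two replicates went on chloramphenicol/ampicillin LB agar (control) and two on chloramphenicol/ampicillin/kanamycin with 0.1 mM IPTG. Recombination efficiency is read from averaged, control-corrected barcode counts per million at recombinant junctions, reported as log10(CPM+1).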
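Also: IS621 recombinase and bridge RNA in Escherichia coli cells.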

Turning to “GCACGTGCTTGGGTTCTAACCTGTTGCCT (site GCTCGTGCTAG)”, the “recombinant barcode read abundance (log10)” value came to 0.0446.

On to “GCACTAGCTTGGGTTCTAACCTGTTGCGT (site GCACTAACTAG)”, for which the “recombinant barcode read abundance (log10)” value is 0.17.

Turning to “GCACTAGCTTGGGTTCTAACCTGTTGCGT (site GCACTAGCTAC)”, the “recombinant barcode read abundance (log10)” value was determined as 2.54.

Take “GCAGCCTCTTGGGTTCTAACCTGTTGCGT (site ATGTGAACTCA)”: the “recombinant barcode read abundance (log10)” value was found to be 0.00651.

In the case of “GCAGCCTCTTGGGTTCTAACCTGTTGCGT (site GCAGCCTCTAC)”, the “recombinant barcode read abundance (log10)” value worked out at 2.08.

As for “GCAGCTACTTGGGTTCTAACCTGTTGCTG (site ACAGCTACTAA)”, the “recombinant barcode read abundance (log10)” value was found to be 0.0295.

“GCAGCTACTTGGGTTCTAACCTGTTGCTG (site GCAGCTACTCA)”: the “recombinant barcode read abundance (log10)” value came to 0.694.

On to “GCATCCTCTTGGGTTCTAACCTGTTGCCA (site AGGAGTACTAA)”, for which the “recombinant barcode read abundance (log10)” value came out at 0.146.

With “GCATCCTCTTGGGTTCTAACCTGTTGCCA (site GCATCCTCTTG)”, the “recombinant barcode read abundance (log10)” value was determined as 0.584.

For “GCATGTCCTTGGGTTCTAACCTGTTGCAT (site GAATGTCCTAT)”, the “recombinant barcode read abundance (log10)” value amounted to 0.128.

Consider “GCATGTCCTTGGGTTCTAACCTGTTGCAT (site GCATGTCCTAT)”, for which the “recombinant barcode read abundance (log10)” value came to 1.37.

Take “GCCAAACCTTGGGTTCTAACCTGTTGCCT (site GCCAAACCTAG)”: the “recombinant barcode read abundance (log10)” value was 0.0479.

Regarding “GCCAAACCTTGGGTTCTAACCTGTTGCCT (site GCCACACCTAG)”, the “recombinant barcode read abundance (log10)” value worked out at 0.0741.

“GCCAAACCTTGGGTTCTAACCTGTTGCCT (site GCCAGACCTAG)”: the “recombinant barcode read abundance (log10)” value turned out to be 0.458.

As for “GCCAAACCTTGGGTTCTAACCTGTTGCCT (site GCCATACCTAG)”, the “recombinant barcode read abundance (log10)” value was found to be 0.184.

For “GCCAACCCTTGGGTTCTAACCTGTTGCGT (site GCCAACCCTAA)”, the “recombinant barcode read abundance (log10)” value turned out to be 0.212.

Consider “GCCAACCCTTGGGTTCTAACCTGTTGCGT (site GCCAACCCTAC)”, for which the “recombinant barcode read abundance (log10)” value came to 0.276.

Take “GCCAACCCTTGGGTTCTAACCTGTTGCGT (site GCCAACCCTAG)”: the “recombinant barcode read abundance (log10)” value turned out to be 0.149.

“GCCAACCCTTGGGTTCTAACCTGTTGCGT (site GCCAACCCTAT)”: the “recombinant barcode read abundance (log10)” value is 0.162.

As for “GCCACTCCTTGGGTTCTAACCTGTTGCGT (site GCCACTCCTAC)”, the “recombinant barcode read abundance (log10)” value was found to be 0.297.

With “GCCACTCCTTGGGTTCTAACCTGTTGCGT (site GTCAATCCTAC)”, the “recombinant barcode read abundance (log10)” value is 0.185.

For “GCCATTACTTGGGTTCTAACCTGTTGCCT (site GCCATAACTAG)”, the “recombinant barcode read abundance (log10)” value was determined as 0.0468.

For “GCCATTACTTGGGTTCTAACCTGTTGCCT (site GCCATCACTAG)”, the “recombinant barcode read abundance (log10)” value was determined as 0.0409.

On to “GCCATTACTTGGGTTCTAACCTGTTGCCT (site GCCATGACTAG)”, for which the “recombinant barcode read abundance (log10)” value is 0.297.

“GCCATTACTTGGGTTCTAACCTGTTGCCT (site GCCATTACTAG)”: the “recombinant barcode read abundance (log10)” value was found to be 0.0923.

As to “GCCATTCCTTGGGTTCTAACCTGTTGCAT (site AGAGCCACTTA)”, the “recombinant barcode read abundance (log10)” value turned out to be 0.0467.

For “GCCATTCCTTGGGTTCTAACCTGTTGCAT (site GCCATTCCTAT)”, the “recombinant barcode read abundance (log10)” value was found to be 0.347.

Regarding “GCCCATGCTTGGGTTCTAACCTGTTGCGG (site CATTTCACTAG)”, the “recombinant barcode read abundance (log10)” value was 0.144.

Regarding “GCCCATGCTTGGGTTCTAACCTGTTGCGG (site GCCCATGCTCC)”, the “recombinant barcode read abundance (log10)” value turned out to be 2.05.

Turning to “GCCGACCCTTGGGTTCTAACCTGTTGCCG (site GCCGACCCTCG)”, the “recombinant barcode read abundance (log10)” value was 0.492.

Turning to “GCCGACCCTTGGGTTCTAACCTGTTGCCG (site GCCTACCCTCC)”, the “recombinant barcode read abundance (log10)” value came out at 0.0507.

On to “GCCGAGACTTGGGTTCTAACCTGTTGCCT (site GCCGAAACTAG)”, for which the “recombinant barcode read abundance (log10)” value turned out to be 0.48.

In the case of “GCCGAGACTTGGGTTCTAACCTGTTGCCT (site GCCGACACTAG)”, the “recombinant barcode read abundance (log10)” value turned out to be 0.0133.

“GCCGAGACTTGGGTTCTAACCTGTTGCCT (site GCCGAGACTAG)”: the “recombinant barcode read abundance (log10)” value is 0.34.

Consider “GCCGAGACTTGGGTTCTAACCTGTTGCCT (site GCCGATACTAG)”, for which the “recombinant barcode read abundance (log10)” value was determined as 0.121.

Consider “GCCGAGTCTTGGGTTCTAACCTGTTGCTT (site GCCGAGTCTAA)”, for which the “recombinant barcode read abundance (log10)” value was 0.688.

In the case of “GCCGAGTCTTGGGTTCTAACCTGTTGCTT (site GCCGAGTCTCA)”, the “recombinant barcode read abundance (log10)” value worked out at 0.0689.

On to “GCCGAGTCTTGGGTTCTAACCTGTTGCTT (site GCCGAGTCTGA)”, for which the “recombinant barcode read abundance (log10)” value amounted to 0.0417.

With “GCCGAGTCTTGGGTTCTAACCTGTTGCTT (site GCCGAGTCTTA)”, the “recombinant barcode read abundance (log10)” value amounted to 0.6.

On to “GCCGATACTTGGGTTCTAACCTGTTGCCA (site AGTCTGCCTCA)”, for which the “recombinant barcode read abundance (log10)” value was found to be 0.134.

On to “GCCGATACTTGGGTTCTAACCTGTTGCCA (site GCCGATACTTG)”, for which the “recombinant barcode read abundance (log10)” value was 0.

Take “GCCGATTCTTGGGTTCTAACCTGTTGCCT (site ACCGATTCTAT)”: the “recombinant barcode read abundance (log10)” value worked out at 0.0154.

Take “GCCGATTCTTGGGTTCTAACCTGTTGCCT (site GCCGATTCTAG)”: the “recombinant barcode read abundance (log10)” value was 0.0394.

As to “GCCGCGACTTGGGTTCTAACCTGTTGCCT (site GCAGCGACTAG)”, the “recombinant barcode read abundance (log10)” value was determined as 0.207.

Turning to “GCCGCGACTTGGGTTCTAACCTGTTGCCT (site GCCGCGACTAG)”, the “recombinant barcode read abundance (log10)” value came to 0.236.

In the case of “GCCGCGACTTGGGTTCTAACCTGTTGCCT (site GCGGCGACTAG)”, the “recombinant barcode read abundance (log10)” value amounted to 0.204.

Regarding “GCCGCGACTTGGGTTCTAACCTGTTGCCT (site GCTGCGACTAG)”, the “recombinant barcode read abundance (log10)” value was 0.262.

As for “GCCTACCCTTGGGTTCTAACCTGTTGCGG (site GCCGACCCTCG)”, the “recombinant barcode read abundance (log10)” value was 0.0988.

For “GCCTACCCTTGGGTTCTAACCTGTTGCGG (site GCCTACCCTCC)”, the “recombinant barcode read abundance (log10)” value is 0.483.

“GCCTATTCTTGGGTTCTAACCTGTTGCGT (site GCCTATTCTAC)”: the “recombinant barcode read abundance (log10)” value was found to be 0.4.

Turning to “GCCTATTCTTGGGTTCTAACCTGTTGCGT (site TCCGATTCTAC)”, the “recombinant barcode read abundance (log10)” value is 0.0523.

Take “GCCTGTTCTTGGGTTCTAACCTGTTGCCT (site GACTGTTCTAG)”: the “recombinant barcode read abundance (log10)” value was 0.238.

Turning to “GCCTGTTCTTGGGTTCTAACCTGTTGCCT (site GCCTGTTCTAG)”, the “recombinant barcode read abundance (log10)” value is 0.462.

In the case of “GCCTGTTCTTGGGTTCTAACCTGTTGCCT (site GGCTGTTCTAG)”, the “recombinant barcode read abundance (log10)” value turned out to be 0.0257.

Consider “GCCTGTTCTTGGGTTCTAACCTGTTGCCT (site GTCTGTTCTAG)”, for which the “recombinant barcode read abundance (log10)” value was determined as 0.137.

Consider “GCGAACACTTGGGTTCTAACCTGTTGCTT (site GCGAACACTAA)”, for which the “recombinant barcode read abundance (log10)” value was found to be 1.9.

In the case of “GCGAACACTTGGGTTCTAACCTGTTGCTT (site GCGAAGTCTAA)”, the “recombinant barcode read abundance (log10)” value was determined as 0.194.

For “GCGAGCCCTTGGGTTCTAACCTGTTGCGT (site GCGAGCCCTAC)”, the “recombinant barcode read abundance (log10)” value came out at 2.52.

On to “GCGAGCCCTTGGGTTCTAACCTGTTGCGT (site GCTAGCCCTCC)”, for which the “recombinant barcode read abundance (log10)” value is 0.0583.

As for “GCGCCCTCTTGGGTTCTAACCTGTTGCCG (site CAATTACCTAA)”, the “recombinant barcode read abundance (log10)” value turned out to be 0.194.

Turning to “GCGCCCTCTTGGGTTCTAACCTGTTGCCG (site GCGCCCTCTCG)”, the “recombinant barcode read abundance (log10)” value is 0.606.

For “GCGCCTCCTTGGGTTCTAACCTGTTGCAT (site GCGACTCCTAT)”, the “recombinant barcode read abundance (log10)” value was 0.144.

As for “GCGCCTCCTTGGGTTCTAACCTGTTGCAT (site GCGCCTCCTAT)”, the “recombinant barcode read abundance (log10)” value was 0.504.

“GCGCCTCCTTGGGTTCTAACCTGTTGCAT (site GCGGCTCCTAT)”: the “recombinant barcode read abundance (log10)” value is 0.

In the case of “GCGCCTCCTTGGGTTCTAACCTGTTGCAT (site GCGTCTCCTAT)”, the “recombinant barcode read abundance (log10)” value is 0.0165.

With “GCGCGCCCTTGGGTTCTAACCTGTTGCGG (site GCGCGCCCTCA)”, the “recombinant barcode read abundance (log10)” value came out at 0.101.

For “GCGCGCCCTTGGGTTCTAACCTGTTGCGG (site GCGCGCCCTCC)”, the “recombinant barcode read abundance (log10)” value amounted to 1.63.

In the case of “GCGCGTGCTTGGGTTCTAACCTGTTGCCT (site GCACGTGCTAG)”, the “recombinant barcode read abundance (log10)” value came out at 1.11.

As to “GCGCGTGCTTGGGTTCTAACCTGTTGCCT (site GCCCGTGCTAG)”, the “recombinant barcode read abundance (log10)” value was determined as 0.539.

Regarding “GCGCGTGCTTGGGTTCTAACCTGTTGCCT (site GCGCGTGCTAG)”, the “recombinant barcode read abundance (log10)” value stood at 0.584.

Turning to “GCGCGTGCTTGGGTTCTAACCTGTTGCCT (site GCTCGTGCTAG)”, the “recombinant barcode read abundance (log10)” value came out at 0.11.

On to “GCGCTAGCTTGGGTTCTAACCTGTTGCCT (site ACGCTAGCTAG)”, for which the “recombinant barcode read abundance (log10)” value was determined as 0.125.

Consider “GCGCTAGCTTGGGTTCTAACCTGTTGCCT (site CCGCTAGCTAG)”, for which the “recombinant barcode read abundance (log10)” value worked out at 0.0832.

In the case of “GCGCTAGCTTGGGTTCTAACCTGTTGCCT (site GCGCTAGCTAG)”, the “recombinant barcode read abundance (log10)” value is 0.205.

For the sequence “GCGCTAGCTTGGGTTCTAACCTGTTGCCT (site TCGCTAGCTAG)”, the “recombinant barcode read abundance (log10)” value was found to be 0.111.

As for “GCGCTTACTTGGGTTCTAACCTGTTGCCT (site GAGCTTACTAG)”, the “recombinant barcode read abundance (log10)” value is 0.191.

Consider “GCGCTTACTTGGGTTCTAACCTGTTGCCT (site GCGCTTACTAG)”, for which the “recombinant barcode read abundance (log10)” value turned out to be 0.665.

For the origin of these results see the supplement of paper PMC11208160.
